From patent US9696323B2, “Biomarkers for chagas disease related cardiomyopathy” (THE BOARD OF REGENTS OF THE UNIVERSITY OF TEXAS SYSTEM, priority 2013, dated 2017)

What was measured:
[1] = test system: T. cruzi; assay: Oxidative modification (carbonylation) of plasma proteins in chagasic rats treated with PBN and/or BZ; format: in vivo, rat; settings: infected rats, plasma proteins
Excerpt: Certain embodiments include biomarkers identified in a previous study. Parasite persistence and oxidative damage in the heart are known to be of pathological significance during Chagas disease (Zacks et al., (2005) An Acad Bras Cienc, 77, 695-715; Gupta et al., (2009) Interdiscip Perspect Infect Dis, 2009, 190354). […] In the previous study the inventors identified 92 proteins that were differentially expressed or oxidized in chagasic plasma. Functional analysis allocated a majority of these proteins to inflammation/immunity and lipid metabolism categories, and to molecular pathways associated with cardiovascular dysfunction, e.g., myocardial infarction, hypertrophy, and fibrosis, and pulmonary embolism and hypertension. Some proteins in chagasic rats treated with PBN and/or BZ were allocated to curative pathways (immune regulation and cardiac remodeling). The 2D-GE results were validated by Western blotting. […] Increased plasma levels of GSN, MYL2, and VIM were directly correlated with the severity of cardiac disease in human chagasic patients. […] These findings have utility in diagnosing disease severity and designing suitable therapy for management of human chagasic patients. […]

[2] = test system: T. cruzi; settings: infected rats; BZ parasite-induced, PBN oxidative stress-induced (Wen et al. 2006, 2010); cited from earlier work
[3] = test system: T. cruzi; assay: 2D-GE plasma proteome profile (differential protein expression) of T. cruzi-infected rats treated with PBN and/or BZ; format: in vivo, rat; settings: plasma, RCP/RCB/RCPB groups (chronic infection)
Excerpt: Certain embodiments include biomarkers identified in a previous study. Parasite persistence and oxidative damage in the heart are known to be of pathological significance during Chagas disease (Zacks et al., (2005) An Acad Bras Cienc, 77, 695-715; Gupta et al., (2009) Interdiscip Perspect Infect Dis, 2009, 190354). […] In the previous study the inventors identified 92 proteins that were differentially expressed or oxidized in chagasic plasma. Functional analysis allocated a majority of these proteins to inflammation/immunity and lipid metabolism categories, and to molecular pathways associated with cardiovascular dysfunction, e.g., myocardial infarction, hypertrophy, and fibrosis, and pulmonary embolism and hypertension. Some proteins in chagasic rats treated with PBN and/or BZ were allocated to curative pathways (immune regulation and cardiac remodeling). The 2D-GE results were validated by Western blotting. […] Increased plasma levels of GSN, MYL2, and VIM were directly correlated with the severity of cardiac disease in human chagasic patients. […] These findings have utility in diagnosing disease severity and designing suitable therapy for management of human chagasic patients.
Ingenuity Pathway Analysis (IPA) is a highly curated and comprehensive software used for the integration of proteins into networks and pathways with biological meaning (Thomas and Bonchev, (2010). Hum Genomics, 4, 353-360). Network analysis of the plasma proteome profile of chagasic rats identified four major sub-networks linked to host response to T. cruzi infection and disease development (Table V). The maximal numbers of the differentially expressed plasma proteins (19 proteins) in chagasic rats were associated with antigen presentation and inflammatory response category (Table V) and indicators of persistent inflammation, known to be of pathological significance in Chagas disease (Dhiman et al., (2009) Clinical and Vaccine Immunology, 16, 660-666; Tanowitz et al., (2009) Prog Cardiovasc Dis, 51, 524-539; Junqueira et al., (2010) Expert Rev Mol Med, 12, e29). Following functional analysis of the inflammation-associated proteins, 12 proteins (APOA1, APOE, C3, CFB, CFH, FGB, GSN, KRT10, PLG, SCG2, SERPINA1, and SERPINC1) were identified as being involved in immune cell trafficking and cell movement of leukocytes, granulocytes, phagocytes, neutrophils, and dendritic and antigen presenting cells. Some of the differentially expressed proteins in inflammation category were associated with activation (APOE, C3, CFH, GC and PLG), chemotaxis (C3, SCG2, SERPINA1, SERPINC1), and infiltration of leukocytes (APOA1, APOE, C3, PLG, KRT10) and neutrophils (C3, CFB, CFH, PLG). Up regulation of APOE, APOA1, APOH, GC and PLG in chagasic plasma was indicative of activation, binding and accumulation of macrophages in the disease state. Of the 19 differentially expressed inflammation-associated proteins, 11 proteins (APOE, C3, CFB, CFH, GSN, KRT10, SCG2, SERPINA1, SERPINC1, GC, and PLG) were carbonylated in chagasic plasma. […] Other proteins (APOE, C3, KRT3, and SCG2) were exposed to oxidation due to T. cruzi-induced, acute oxidative stress, but were normalized in expression and oxidation during the chronic phase.
Seventeen of the differentially expressed proteins in chagasic plasma, i.e., AFM, C4BPA, CACNA1D, DLGAP2, GC, KNG1, MUG1, MYLPF, MY05A, MY05B, PRPH, PZP, RAI14, and SCG2, were allotted to the lipid metabolism/molecular transport/small molecule biochemistry category (Table V) and functionally linked by IPA network analysis to lipid, fatty acid, and carbohydrate metabolism. A majority of the proteins in this category, i.e., ALB, APOA1, APOA4, APOE, APOH, C3, GC, GNAQ, MY05A, PLG, SCD2, SERPINA1, SERPINC1 and VIM, were linked to the synthesis, metabolism, transport, and modification of lipids and fatty acids, and to uptake and release or efflux of lipids, eicosanoids, and cholesterol. […]

O=C(Cn1ccnc1[N+](=O)[O-])NCc1ccccc1 [BZ]
preventing protein carbonylation [1]: not effective in preventing protein carbonylation | controlling parasite- and oxidative stress-induced pathology [2]: beneficial effects | Spot# 34 Average Normalized Density × 100,000 [3]: 0.37 | Spot# 52, 54, 302 Average Normalized Density × 100,000 [3]: 0.60 | Spot# 94 Average Normalized Density × 100,000 [3]: 0.55 | Spot# 181 Average Normalized Density × 100,000 [3]: 7.53 | Spot# 586, 614 Average Normalized Density × 100,000 [3]: 132.20 | Spot# 672 Average Normalized Density × 100,000 [3]: 23.29 | Spot# 715 Average Normalized Density × 100,000 [3]: 30.96 | Spot# 745 Average Normalized Density × 100,000 [3]: 2.30
